Measurements published in paper PMC12379159 (Journal of Natural Products, 2025).

What was measured:
Gal4-hRORγ = biological target: T1, Gal4-hRORγ (Homo sapiens, UniProt P51449); test: Gal4-RORγ mammalian one-hybrid luciferase assay; type: cell-based; conditions: HEK293 cells
T1 construct: Encodes for a hRORγ-LBD:Gal4-DBD fusion protein; expressed in transfected cells; host or cells: HEK293
T1 sequence (P51449 269-508 limits assumed): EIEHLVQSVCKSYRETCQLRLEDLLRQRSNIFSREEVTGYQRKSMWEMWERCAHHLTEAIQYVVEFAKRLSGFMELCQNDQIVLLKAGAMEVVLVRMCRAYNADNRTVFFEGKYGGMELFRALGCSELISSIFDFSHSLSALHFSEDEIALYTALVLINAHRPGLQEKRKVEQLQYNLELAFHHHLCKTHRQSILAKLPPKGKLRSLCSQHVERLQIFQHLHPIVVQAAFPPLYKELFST
Method: (§1) For luciferase assays, 8 × 10^6 HEK293 cells were seeded on 150 mm cell culture dishes and incubated for 5 h. Afterward, cells were transfected with the calcium phosphate coprecipitation method using 5 μg of the nuclear receptor (Gal4-hRORγ or full-length human RORγ), 5 μg of a luciferase reporter (pTK-MH100 × 4-LUC for Gal4-hRORγ experiments or RORE-LUC for full-length human RORγ experiments) and 3 μg eGFP-N1 (for assessing transfection efficiency) plasmid DNA and incubated overnight. […] The medium was changed the following day, and cells were further incubated for another four to 5 h before trypsin/EDTA was added to detach them from the dishes. […] RLUs were normalized to relative fluorescence units (RFU) to account for differences in cell number and transfection efficiency and then normalized to the vehicle control. Results are expressed as fold activation relative to the vehicle control.
(§2) Concentration–response data were analyzed in GraphPad Prism version 10 by three-parameter logistic nonlinear regression, with the Hill slope constrained to a theoretical value of −1.0. An IC50 value was determined only for compounds yielding a statistically reliable fit. […] In these cases, only the maximal inhibition achieved at the highest tested concentration (I max(%) at 5 μM) is reported, calculated as follows: Imax(%)=(1−Bottom/Top)×100 (“top” = baseline activity measured at the lowest concentration, “bottom” = residual activity observed at the highest concentration, corresponding to the maximal inhibitory effect).

EL-4-mRORγt cells = test: Resazurin conversion assay in EL-4-mRORγt cells; type: cell-based, murine; conditions: 5 μM, 20-24 h
Method: To check the metabolic activity of cells correlating with cell viability, cells were treated with the vehicle control (0.1% DMSO), digitonin as the positive control for cytotoxicity at 20 μg/mL (HEK293 cells) or 50 μg/mL (EL-4-mRORγt cells), or the compounds of interest at 5 μM for 18 h (HEK293 cells) or 20–24 h (EL-4-mRORγt cells). The next day, the medium was carefully removed and replaced with stripped DMEM without phenol red, containing 10 μg/mL resazurin sodium salt. Cells were incubated for 5 h before RFU values were measured at λem = 590 nm using a spectrophotometer. Cell viability was calculated as follows: Cell viability(%)=100×RFU value after compound treatment/RFU value after vehicle control treatment Cytotoxicity was defined as cell viability under 70% according to the ISO 10993–5 guidelines. Cell viability <90% is explicitly stated in the respective figure.

[1] = tested on: Il17a and Il17f (Il17a/f); test: RT-qPCR of Il17a and Il17f in EL-4-mRORγt cells; type: cell-based, murine; conditions: indicated concentrations, 20–24 h, then 4.5-h PMA and ionomycin
Method: For RT-qPCR assays, 5 × 10^5 EL-4-mRORγt cells were seeded in 500 μL complete DMEM per well of a 24-well plate and treated with the vehicle control, the positive control, or the compounds of interest. After incubation for 20–24 h, cells were stimulated with Cell Activation Cocktail (PMA: 40.5 μM, ionomycin: 669.3 μM; 500X) for 4.5 h. Afterward, total RNA was isolated using the innuPREP RNA Mini Kit 2.0 according to the manufacturer’s instructions. According to the manufacturer’s instructions, 1 μg RNA was reverse-transcribed into cDNA using the High-Capacity cDNA Reverse Transcription Kit. RT-qPCR was performed using the Luna Universal qPCR Master Mix on a LightCycler 480 (Roche Diagnostics, Rotkreuz, Switzerland) according to the manufacturer’s instructions. […] Livak’s 2−ΔΔCt method was employed to determine the expression levels of RORγ target genes. This involved normalizing the target gene expression to the expression levels of the control gene 18s, followed by further normalization to the vehicle control.

full-length human RORγ = biological target: T2, full-length human RORγ (Homo sapiens, UniProt P51449); test: Full-length RORγ luciferase assay (RORE-LUC reporter); type: cell-based; conditions: HEK293 cells
T2 construct: Encodes for the full-length human RORγ; expressed in transfected cells; host or cells: HEK293
T2 sequence (P51449 1-518): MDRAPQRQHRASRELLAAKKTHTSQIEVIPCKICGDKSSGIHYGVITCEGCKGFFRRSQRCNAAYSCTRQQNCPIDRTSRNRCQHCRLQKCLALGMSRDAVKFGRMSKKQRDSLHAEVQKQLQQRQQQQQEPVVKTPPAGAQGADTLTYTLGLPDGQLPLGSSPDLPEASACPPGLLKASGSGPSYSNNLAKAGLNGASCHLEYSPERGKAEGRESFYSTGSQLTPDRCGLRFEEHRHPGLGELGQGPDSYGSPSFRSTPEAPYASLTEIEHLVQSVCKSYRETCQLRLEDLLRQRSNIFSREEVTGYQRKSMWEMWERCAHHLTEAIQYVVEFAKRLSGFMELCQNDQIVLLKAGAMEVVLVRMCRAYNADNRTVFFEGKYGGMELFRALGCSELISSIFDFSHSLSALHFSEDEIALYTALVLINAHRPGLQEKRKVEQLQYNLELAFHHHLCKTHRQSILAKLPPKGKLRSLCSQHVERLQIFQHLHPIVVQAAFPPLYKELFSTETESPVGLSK
Method: as §1, §2

luciferase = biological target: T3, luciferase (Photinus pyralis, UniProt P08659); test: Direct luciferase inhibition check (cells transfected only with pTK-MH100 × 4-LUC and eGFP-N1); type: cell-based; conditions: 5 μM
T3 construct: expressed in transfected cells; host or cells: HEK293
T3 sequence (P08659 whole entry): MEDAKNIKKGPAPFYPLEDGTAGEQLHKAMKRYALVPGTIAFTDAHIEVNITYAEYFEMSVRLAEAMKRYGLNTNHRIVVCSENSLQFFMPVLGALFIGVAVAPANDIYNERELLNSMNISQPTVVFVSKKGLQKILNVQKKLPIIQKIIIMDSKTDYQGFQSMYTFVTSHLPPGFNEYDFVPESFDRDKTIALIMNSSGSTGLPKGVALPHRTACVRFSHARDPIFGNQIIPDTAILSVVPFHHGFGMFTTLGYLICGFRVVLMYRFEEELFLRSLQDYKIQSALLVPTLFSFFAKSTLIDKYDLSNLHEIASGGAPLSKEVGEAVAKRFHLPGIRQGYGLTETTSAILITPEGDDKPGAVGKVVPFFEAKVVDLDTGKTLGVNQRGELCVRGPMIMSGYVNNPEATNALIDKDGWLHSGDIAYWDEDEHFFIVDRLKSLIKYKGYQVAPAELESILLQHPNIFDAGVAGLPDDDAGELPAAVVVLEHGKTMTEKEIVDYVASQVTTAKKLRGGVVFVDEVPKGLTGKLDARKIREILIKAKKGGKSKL
Method: as §1

With `C=C(C)[C@@H]1CC[C@]2(C(=O)O)CC[C@]3(C)[C@H](CC[C@@H]4[C@@]5(C)C/C(=C/c6ccco6)C(=O)C(C)(C)[C@@H]5CC[C@]43C)[C@@H]12` [Compound 15, (2Z)-2-(2-furanylmethylene)-3-oxolup-20(29)-en-28-oic acid] the “Activity in Gal4-RORγ luciferase assay (initial screen)” value (Gal4-hRORγ; 3 μM) was “new inverse agonist of RORγ”, the “Imax(%) at 5 μM, Gal4-RORγ luciferase assay” value (Gal4-hRORγ; 5 μM) was 76% and the IC50 (Gal4-hRORγ; 18 h treatment, up to 5 μM) was 400 nM. The “Cytotoxic effects, resazurin conversion assay” value (EL-4-mRORγt cells) was “no cytotoxic effects”, the Il17a expression [1] was “failed to affect Il17a expression levels” and the Il17f expression [1] was “slight yet concentration-dependent decrease”. The “Imax(%) at 5 μM, full-length RORγ luciferase assay” value (full-length human RORγ; 5 μM) was 69%, the IC50 (full-length human RORγ; 18 h treatment, up to 5 μM, read-out: IC50, full-length RORγ luciferase assay) was 900 nM and the “Inhibition of luciferase enzyme activity” value (luciferase) was “did not inhibit luciferase enzyme activity”.
